Like-named read-outs stand apart in the source and are kept apart here.
How the values were obtained:
P. aeruginosa AUMC-Pa-3 = assay: microbe, parasite or virus in culture
Method in brief: (§1)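 Broth microdilution per CLSI in MHB: two-fold drug dilutions mixed with an equal volume of bacterial suspension at approximately 1 × 10^6 CFU/mL, incubated 18 h at 37 °C. MIC was the lowest concentration with no visible growth; triplicate runs.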

P. aeruginosa AUMC-Pa-4 = assay: microbe, parasite or virus in culture
Method in brief: as §1

P. aeruginosa AUMC-Pa-5 = assay: microbe, parasite or virus in culture
Method in brief: as §1

P. aeruginosa AUMC-Pa-6 = assay: microbe, parasite or virus in culture
Method in brief: as §1

P. aeruginosa PAO1 = assay: microbe, parasite or virus in culture; conditions: PAO1; for FICI / MICac: the MIC for the antibiotic in the combination: S3 Table
Method in brief: as §1

P. aeruginosa ATCC27853 = assay: microbe, parasite or virus in culture; design: MICa: MIC of the antibiotic / MICac: MIC of the antibiotic in the combination: unit not given beside the values
Method in brief: as §1

P. aeruginosa NR-31040 = assay: microbe, parasite or virus in culture; design: MICa: MIC of the antibiotic / MICac: MIC of the antibiotic in the combination: unit not given beside the values
Method in brief: as §1

P. aeruginosa NR-31041 = assay: microbe, parasite or virus in culture; design: MICa: MIC of the antibiotic / MICac: MIC of the antibiotic in the combination: unit not given beside the values
Method in brief: as §1

P. aeruginosa PA14 = assay: microbe, parasite or virus in culture; design: MICa: MIC of the antibiotic / MICac: MIC of the antibiotic in the combination: unit not given beside the values
Method in brief: as §1

P. aeruginosa PAK = assay: microbe, parasite or virus in culture; design: MICa: MIC of the antibiotic / MICac: MIC of the antibiotic in the combination: unit not given beside the values
Method in brief: as §1

P. aeruginosa HM-214 = conditions: strain HM-214; antibiotic + D-11 (MICb/MICbc 128/4)
Method in brief: as §1

P. aeruginosa AUMC-Pa-1 = conditions: strain AUMC-Pa-1; antibiotic + D-11 (MICb/MICbc 128/4)
Method in brief: as §1

P. aeruginosa AUMC-Pa-2 = conditions: strain AUMC-Pa-2; antibiotic + D-11 (MICb/MICbc 64/4)
Method in brief: as §1

[1] = tested on: clinical P. aeruginosa isolates; assay: microbe, parasite or virus in culture; conditions: Pseudomonas aeruginosa, 18 h, antibiotic alone
Method in brief: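 Broth microdilution per CLSI in MHB, two-fold drug dilutions mixed with an equal volume of bacteria at about 1 × 10^6 CFU/mL. After 18 h at 37 °C, MIC taken as the lowest concentration with no visible growth; run in triplicate.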

MIC (P. aeruginosa AUMC-Pa-3; Pseudomonas aeruginosa, AUMCPA3, 18 h, read-out: MICa: MIC of the antibiotic): 0.5 µM
MICac: MIC of the antibiotic in the combination (P. aeruginosa AUMC-Pa-3; strain AUMC-Pa-3, with D-11 at MICbc 4, unit not given): 0.125
MIC (P. aeruginosa AUMC-Pa-4; Pseudomonas aeruginosa, AUMCPA4, 18 h, read-out: MICa: MIC of the antibiotic): 0.5 µM
MICac: MIC of the antibiotic in the combination (P. aeruginosa AUMC-Pa-4; strain AUMC-Pa-4, with D-11 at MICbc 4, unit not given): 0.25
MIC (P. aeruginosa AUMC-Pa-5; Pseudomonas aeruginosa, AUMCPA5, 18 h, read-out: MICa: MIC of the antibiotic): 0.5 µM
MICac: MIC of the antibiotic in the combination (P. aeruginosa AUMC-Pa-5; strain AUMC-Pa-5, with D-11 at MICbc 4, unit not given): 1
MIC (P. aeruginosa AUMC-Pa-6; Pseudomonas aeruginosa, AUMCPA6, 18 h, read-out: MICa: MIC of the antibiotic): 0.25 µM
MICac: MIC of the antibiotic in the combination (P. aeruginosa AUMC-Pa-6; strain AUMC-Pa-6, with D-11 at MICbc 4, unit not given): 0.25/0.25
MIC (P. aeruginosa PAO1; Pseudomonas aeruginosa, PAO1, 18 h, read-out: MICa: the MIC of antibiotics, S3 Table, antibiotic alone): 1 µM
MICac: the MIC for the antibiotic in the combination (P. aeruginosa PAO1; with 2 μM D-11): 0.0625 µM
MICac: the MIC for the antibiotic in the combination (P. aeruginosa PAO1; with 4 μM D-11): 0.03125 µM
MIC (P. aeruginosa ATCC27853; Pseudomonas aeruginosa, ATCC27853, 18 h, read-out: MICa: MIC of the antibiotic): 1 µM
MICac: MIC of the antibiotic in the combination (P. aeruginosa ATCC27853; strain ATCC27853, with D-11 at MICbc 4, unit not given): 0.125
MIC (P. aeruginosa NR-31040; Pseudomonas aeruginosa, NR31040, 18 h, read-out: MICa: MIC of the antibiotic): 1 µM
MICac: MIC of the antibiotic in the combination (P. aeruginosa NR-31040; strain NR-31040, with D-11 at MICbc 4, unit not given): 0.25
MIC (P. aeruginosa NR-31041; Pseudomonas aeruginosa, NR31041, 18 h, read-out: MICa: MIC of the antibiotic): 1 µM
MICac: MIC of the antibiotic in the combination (P. aeruginosa NR-31041; strain NR-31041, with D-11 at MICbc 4, unit not given): 0.25
MIC (P. aeruginosa PA14; Pseudomonas aeruginosa, PA14, 18 h, read-out: MICa: MIC of the antibiotic): 0.5 µM
MICac: MIC of the antibiotic in the combination (P. aeruginosa PA14; strain PA14, with D-11 at MICbc 4, unit not given): 0.25
MIC (P. aeruginosa PAK; Pseudomonas aeruginosa, 18 h, read-out: MICa: MIC of the antibiotic): 0.5 µM
MICac: MIC of the antibiotic in the combination (P. aeruginosa PAK; strain PAK, with D-11 at MICbc 4, unit not given): 0.25
MIC ([1]; read-out: Antibiotic sensibility (MIC) of clinical P. aeruginosa isolate AUMC-Pa-1, strain AUMC-Pa-1): 8 µM
MIC ([1]; read-out: Antibiotic sensibility (MIC) of clinical P. aeruginosa isolate AUMC-Pa-2, strain AUMC-Pa-2): 0.5 µM
MIC ([1]; read-out: Antibiotic sensibility (MIC) of clinical P. aeruginosa isolate AUMC-Pa-3, strain AUMC-Pa-3): 0.5 µM
MIC ([1]; read-out: Antibiotic sensibility (MIC) of clinical P. aeruginosa isolate AUMC-Pa-4, strain AUMC-Pa-4): 0.5 µM
MIC ([1]; read-out: Antibiotic sensibility (MIC) of clinical P. aeruginosa isolate AUMC-Pa-5, strain AUMC-Pa-5): 0.5 µM
MIC ([1]; read-out: Antibiotic sensibility (MIC) of clinical P. aeruginosa isolate AUMC-Pa-6, strain AUMC-Pa-6): 0.25 µM
MIC ([1]; read-out: Antibiotic sensibility (MIC) of clinical P. aeruginosa isolate HM-214, strain HM-214): 1 µM
MIC ([1]; read-out: Antibiotic sensibility (MIC) of clinical P. aeruginosa isolate NR-31040, strain NR-31040): 1 µM
MIC ([1]; read-out: Antibiotic sensibility (MIC) of clinical P. aeruginosa isolate NR-31041, strain NR-31041): 1 µM
Compound: C[C@H]1COc2c(N3CCN(C)CC3)c(F)cc3c(=O)c(C(=O)O)cn1c23 [Levofloxacin]
FICI (P. aeruginosa AUMC-Pa-3; strain AUMC-Pa-3, antibiotic + D-11 (MICb/MICbc 128/4)): 0.281
FICI (P. aeruginosa AUMC-Pa-4; strain AUMC-Pa-4, antibiotic + D-11 (MICb/MICbc 128/4)): 0.531
FICI (P. aeruginosa AUMC-Pa-5; strain AUMC-Pa-5, antibiotic + D-11 (MICb/MICbc 64/4)): 2.063
FICI (P. aeruginosa AUMC-Pa-6; strain AUMC-Pa-6, antibiotic + D-11 (MICb/MICbc 64/4)): 1.063
FICI (P. aeruginosa PAO1; antibiotic + 2 μM D-11): 0.125
FICI (P. aeruginosa PAO1; antibiotic + 4 μM D-11): 0.156
FICI (P. aeruginosa ATCC27853; strain ATCC27853, antibiotic + D-11 (MICb/MICbc 32/4)): 0.250
FICI (P. aeruginosa NR-31040; strain NR-31040, antibiotic + D-11 (MICb/MICbc 128/4)): 0.281
FICI (P. aeruginosa NR-31041; strain NR-31041, antibiotic + D-11 (MICb/MICbc 64/4)): 0.313
FICI (P. aeruginosa PA14; strain PA14, antibiotic + D-11 (MICb/MICbc 128/4)): 0.531
FICI (P. aeruginosa PAK; strain PAK, antibiotic + D-11 (MICb/MICbc 64/4)): 0.563
FICI (P. aeruginosa HM-214): 0.531
FICI (P. aeruginosa AUMC-Pa-1): 0.156
FICI (P. aeruginosa AUMC-Pa-2): 0.563

From article PMC8445441, “Elucidating the mechanism by which synthetic helper peptides sensitize Pseudomonas aeruginosa to multiple antibiotics” (PLoS Pathogens, 2021)
